The record followed here is patent US6379676B2, “Enhancing immune response in animals” (priority 1999, dated 2002).

The subject of the assay is E. coli.

Experimental: The term “resistant to contamination by pathogenic bacteria” means that a challenge with 1000 colony forming units (CFU) per gram of feed results in the death of substantially all the bacteria within 24 to 72 hours. In particular, the term “resistance to contamination by Salmonella or E. coli” means that a challenge with 1000 CFUs of Salmonella or E. coli per gram of feed results in 1 CFU or less per 25 grams of feed after 24 hours incubation at 25° C.
One set of samples was treated with a coarse spray (270 microns) at 1.8 gal/hr. (6.81 liters/hr.) and another was treated with fine mist (43 microns) at 25.5 gal/hr. (96.5 liters/hr.). Each sample of 500 grams was challenged with 20 ml of a liquid inoculum of Escherishia coli (>10^6 CFU/ml) one week after treatment.

Regarding `C=O` [formaldehyde], the “time finished feed resists contamination by E. coli” value (2 lbs. (0.91 kg) dry wt. per metric ton, 2.0% CV, 1000 CFUs/gram of feed) is recorded as “about 60 days”. Further, the “resistance as measured by challenge with E. coli” value (4 lbs. (1.81 kg) dry wt. per metric ton of finished feed, 7% CV, 1000 CFU/gram of feed) is “about 30 days”.
